Source: patent publication US20140271534A1, “COMPOUNDS, COMPOSITIONS, AND METHODS FOR REPELLING AN INSECT FROM AN AREA, ARTICLE, AND/OR STRUCTURE” (BAYER CROPSCIENCE LP, priority 2013, published 2014)

Columns and labels:
honeybees = experiment: honeybee repulsion experiment, feeding stations with 50% sucrose; assay type: in vivo; conditions: for repellency to honeybees at 24 hours: 2% by weight in 50% sucrose feeder
Method: FIG. 1 describes the feeding station arrangement (A and B) for the honeybee repulsion experiments described herein. As set forth in FIG. 1, panel (A) sets forth the bee cage positions on the left portion of panel (A) with the randomized feeding station positions on the right portion of panel (A). Panel (B) sets forth an alignment of the randomized feeding station positions with a distance of two meters between feeding stations. A total of eight feeding stations were evaluated at a ten meter distance in front of the respective bee hives. The feeding stations were placed two meters apart from one another.
Honeybees were trained to deep feeders (eight positions), each containing a 50% sucrose solution for one day. After the honeybees were trained to each feeder, the 50% sucrose feeder at randomized positions 1-8 was replaced with a shallow feeder containing a combination of repelling compounds and a 50% sucrose solution according to Table 3. In accordance with FIGS. 5 and 6, 2% by weight of Camphor oil (T4), Ajowan oil (T5), Camphor powder (T6), Rosemary oil (T7), and 2-Decanone (T8) in combination with a 50% sucrose treatment were added to feeders on day two.
Table 3 describes active agents evaluated for bee repulsion and their randomized feeding station positions. As described in Table 3, T1 (control), T2 (control), T3 (control), T4 (Camphor oil), T5 (Ajowan oil), T6 (Camphor powder), T7 (Rosemary oil), and T8 (2-Decanone).
FIG. 5 evaluates the number of bees visiting a respective feed station over a time interval. FIG. 6 sets forth the mean number of honeybees visiting feeding station over a period of four hours.

[1] = stability test of Poncho 600 combined with α-terpineol, clothianidin content by HPLC; assay type: physicochemical; conditions: in Poncho combined with alpha-terpineol; up to 54° C. for eight days
Method: Table 5 describes a stability test with a combination of α-terpineol and Poncho 600 evaluated at room temperature, 40° C., and 54° C. at zero time, 2 days, and 8 days as confirmed by HPLC.

[2] = stability test of Poncho combined with Eugenol, clothianidin content by HPLC; assay type: physicochemical; conditions: in Poncho combined with Eugenol; up to 54° C. for seven days
Method: Table 4 describes a stability test with a combination of Eugenol and Poncho evaluated at room temperature, 40° C., and 54° C. at zero time, 3 days, and 7 days as confirmed by high performance liquid chromatography (HPLC).

Row | SMILES | repellency to honeybees at 24 hours (honeybees) | repellency to honeybees at 24 hours (honeybees; listed as 2-decanone) | repellency to honeybees over the full 4 hour assessment period (honeybees; in 50% sucrose feeder, 4 hour assessment period) | chemical stability of clothianidin content [1] | chemical stability of clothianidin content [2]
1 | CCCCCCCCC(C)=O [Compound 2-Decanone, 2-decanone] | exhibited repellency | still repellent | highly repellent | – | –
2 | CN/C(=N\[N+](=O)[O-])NCc1cnc(Cl)s1 [clothianidin] | – | – | – | exhibited chemical stability | exhibited chemical stability
